The assay has as its system breast cancer. Kind of assay: mouse model for breast cancer, tumor mass and regrowth. Conditions: for tumor size and regrowth: followed to 180 days; for tumor regrowth / change in tumor mass on estrogen stimulation: stimulated with estrogen at day 115. It counts as in vivo. As for the experimental part:
Carbendazim is administered to the mice at 4000, 5000, and 6000 mg/kg of body weight in a separate leg.

Molecules are shown by their SMILES.

Consider `COC(=O)Nc1nc2ccccc2[nH]1` [Carbendazim, 2-methoxycarbonylamino-benzimidazole], for which the “tumor regrowth / change in tumor mass on estrogen stimulation” value is “no significant change in tumor mass”. Also, the “tumor size and regrowth” value (carbendazim at 4000, 5000 and 6000 mg/kg given after 130 days to mice that had been treated with cytoxan) was “The tumor continued to decrease in size and its regrowth was limited even after 180 days”. In addition, the “dose dependence of tumor growth” value (carbendazim at 4000, 5000 and 6000 mg/kg of body weight) was “dose dependent”. The “tumor size and regrowth” value (carbendazim at 4000, 5000 and 6000 mg/kg of body weight in a separate leg) is “The tumor continued to decrease in size and its regrowth was limited even after 180 days”.
For the compound `O=P1(N(CCCl)CCCl)NCCCO1` (stereo not drawn) [cytoxan], the “tumor regrowth / change in tumor mass on estrogen stimulation” value is listed as “rapid regrowth”. For the same compound, where the note is “cytoxan treated control, no carbendazim”, the tumor regrowth result is listed as “tumor regrowth after 100 days”.
